Calls of active or inactive are those of the source. The rule behind the calls is not given here.
Experiments:
[1] = Neurotoxicity in oral dosed Sprague-Dawley albino rat assessed as motor impairment by rotarod test; assay type: toxicity, organism-based; details: in vivo
[2] = system: Mus musculus; test: Anticonvulsant activity in ip dosed CF1 albino mouse assessed as protection against maximal electroshock-induced seizures after 0.5 hrs; assay type: functional; details: read-out: MED
[3] = system: Mus musculus; test: Neurotoxicity in CF1 albino mouse assessed as loss of rotard grasping at 300 mg/kg, ip after 0.5 hrs by rotarod test; assay type: toxicity, organism-based; parameters: dose 300 mg/kg, route intraperitoneal; details: in vivo
[4] = system: Rattus norvegicus; test: Neurotoxicity in Sprague-Dawley albino rat assessed as motor impairment at 50 mg/kg, po after 0.25 hrs by rotarod test; assay type: toxicity, organism-based; parameters: dose 50 mg/kg, route oral; details: in vivo
[5] = system: Rattus norvegicus; test: Neurotoxicity in Sprague-Dawley albino rat assessed as motor impairment at 30 mg/kg, po after 0.25 hrs by rotarod test; assay type: toxicity, organism-based; parameters: dose 30 mg/kg, route oral; details: in vivo
[6] = system: Rattus norvegicus; test: Anticonvulsant activity in Sprague-Dawley albino rat assessed as protection against subcutaneous pentylenetetrazole-induced seizures at 50 mg/kg, po after 1 hrs; assay type: functional, organism-based; parameters: dose 50 mg/kg
[7] = system: Rattus norvegicus; test: Neurotoxicity in Sprague-Dawley albino rat assessed as motor impairment at 30 mg/kg, po after 1 hrs by rotarod test; assay type: toxicity, organism-based; parameters: dose 30 mg/kg, route oral; details: in vivo
[8] = species on record: Rattus norvegicus; test: Protective index, ratio of TD50 for neurotoxicity in Sprague-Dawley albino rat to ED50 for inhibition of maximal electroshock-induced seizures in Sprague-Dawley albino rat; assay type: functional
[9] = system: Rattus norvegicus; test: Neurotoxicity in Sprague-Dawley albino rat assessed as motor impairment at 30 mg/kg, po after 2 hrs by rotarod test; assay type: toxicity, organism-based; parameters: dose 30 mg/kg, route oral; details: in vivo
[10] = system: Rattus norvegicus; test: Neurotoxicity in Sprague-Dawley albino rat assessed as motor impairment at 50 mg/kg, po after 0.5 hrs by rotarod test; assay type: toxicity, organism-based; parameters: dose 50 mg/kg, route oral; details: in vivo
[11] = system: Mus musculus; test: Neurotoxicity in CF1 albino mouse assessed as minimum dose causing loss of righting reflex at 300 mg/kg, ip after 4 hrs by rotarod test; assay type: toxicity, organism-based; parameters: dose 300 mg/kg, route intraperitoneal; details: in vivo
[12] = system: Rattus norvegicus; test: Neurotoxicity in Sprague-Dawley albino rat assessed as motor impairment at 50 mg/kg, po after 4 hrs by rotarod test; assay type: toxicity, organism-based; parameters: dose 50 mg/kg, route oral; details: in vivo
[13] = system: Rattus norvegicus; test: Anticonvulsant activity in Sprague-Dawley albino rat assessed as protection against subcutaneous pentylenetetrazole-induced seizures at 50 mg/kg, po after 2 hrs; assay type: functional, organism-based; parameters: dose 50 mg/kg
[14] = system: Rattus norvegicus; test: Anticonvulsant activity in Sprague-Dawley albino rat assessed as protection against subcutaneous pentylenetetrazole-induced seizures at 50 mg/kg, po after 0.25 hrs; assay type: functional, organism-based; parameters: dose 50 mg/kg
[15] = system: Mus musculus; test: Anticonvulsant activity in ip dosed CF1 albino mouse assessed as protection against subcutaneous pentylenetetrazole-induced seizures after 4 hrs; assay type: functional; details: read-out: MED
[16] = system: Rattus norvegicus; test: Anticonvulsant activity in po dosed Sprague-Dawley albino rat assessed as protection against maximal electroshock-induced seizures; assay type: functional
[17] = system: Rattus norvegicus; test: Anticonvulsant activity in Sprague-Dawley albino rat assessed as protection against subcutaneous pentylenetetrazole-induced seizures at 50 mg/kg, po after 0.5 hrs; assay type: functional, organism-based; parameters: dose 50 mg/kg
[18] = system: Rattus norvegicus; test: Neurotoxicity in Sprague-Dawley albino rat assessed as motor impairment at 50 mg/kg, po after 2 hrs by rotarod test; assay type: toxicity, organism-based; parameters: dose 50 mg/kg, route oral; details: in vivo
[19] = system: Mus musculus; test: Anticonvulsant activity in ip dosed CF1 albino mouse assessed as protection against subcutaneous pentylenetetrazole-induced seizures after 0.5 hrs; assay type: functional; details: read-out: MED
[20] = system: Rattus norvegicus; test: Neurotoxicity in Sprague-Dawley albino rat assessed as motor impairment at 30 mg/kg, po after 4 hrs by rotarod test; assay type: toxicity, organism-based; parameters: dose 30 mg/kg, route oral; details: in vivo
[21] = system: Mus musculus; test: Anticonvulsant activity in ip dosed CF1 albino mouse assessed as protection against maximal electroshock-induced seizures after 4 hrs; assay type: functional; details: read-out: MED
[22] = system: Rattus norvegicus; test: Neurotoxicity in Sprague-Dawley albino rat assessed as motor impairment at 50 mg/kg, po after 1 hrs by rotarod test; assay type: toxicity, organism-based; parameters: dose 50 mg/kg, route oral; details: in vivo
[23] = Lipophilicity, log P of compound; assay type: physicochemical; details: octanol/water
[24] = system: Rattus norvegicus; test: Anticonvulsant activity in po dosed Sprague-Dawley albino rat assessed as time to peak effect; assay type: functional
[25] = system: Rattus norvegicus; test: Neurotoxicity in Sprague-Dawley albino rat assessed as motor impairment at 30 mg/kg, po after 0.5 hrs by rotarod test; assay type: toxicity, organism-based; parameters: dose 30 mg/kg, route oral; details: in vivo
[26] = system: Mus musculus; test: Anticonvulsant activity in CF1 albino mouse assessed as protection against maximal electroshock-induced seizures at 300 mg/kg, ip after 4 hrs; assay type: functional, organism-based; parameters: dose 300 mg/kg
[27] = system: Mus musculus; test: Neurotoxicity in CF1 albino mouse assessed as impair in motor coordination at 300 mg/kg, ip after 0.5 hrs by rotarod test; assay type: toxicity, organism-based; parameters: dose 300 mg/kg, route intraperitoneal; details: in vivo
[28] = system: Rattus norvegicus; test: Anticonvulsant activity in Sprague-Dawley albino rat assessed as protection against subcutaneous pentylenetetrazole-induced seizures at 50 mg/kg, po after 4 hrs; assay type: functional, organism-based; parameters: dose 50 mg/kg
[29] = system: Mus musculus; test: Anticonvulsant activity in CF1 albino mouse assessed as protection against maximal electroshock-induced seizures at 300 mg/kg, ip after 0.5 hrs; assay type: functional, organism-based; parameters: dose 300 mg/kg
[30] = species on record: Rattus norvegicus
Description: Protective index, ratio of TD50 for neurotoxicity in Sprague-Dawley albino rat to ED50 for inhibition of subcutaneous pentylenetetrazole-induced seizures in Sprague-Dawley albino rat

[31] = system: Mus musculus; test: Neurotoxicity in CF1 albino mouse assessed as impair in motor coordination at 300 mg/kg, ip after 4 hrs by rotarod test; assay type: toxicity, organism-based; parameters: dose 300 mg/kg, route intraperitoneal; details: in vivo
[32] = system: Rattus norvegicus; test: Anticonvulsant activity in Sprague-Dawley albino rat assessed as protection against maximal electroshock-induced seizures at 30 mg/kg, po after 0.25 hrs; assay type: functional, organism-based; parameters: dose 30 mg/kg
[33] = system: Rattus norvegicus; test: Anticonvulsant activity in Sprague-Dawley albino rat assessed as protection against maximal electroshock-induced seizures at 30 mg/kg, po after 4 hrs; assay type: functional, organism-based; parameters: dose 30 mg/kg
[34] = system: Mus musculus; test: Toxicity in subcutaneous pentylenetetrazole-induced CF1 albino mouse assessed as myoclonic jerks at 300 mg/kg, ip after 4 hrs; assay type: organism-based; parameters: dose 300 mg/kg; details: in vivo, sc
[35] = system: Rattus norvegicus; test: Anticonvulsant activity in Sprague-Dawley albino rat assessed as protection against maximal electroshock-induced seizures at 30 mg/kg, po after 0.5 hrs; assay type: functional, organism-based; parameters: dose 30 mg/kg
[36] = system: Mus musculus; test: Toxicity in subcutaneous pentylenetetrazole-induced CF1 albino mouse assessed as myoclonic jerks at 300 mg/kg, ip after 0.5 hrs; assay type: organism-based; parameters: dose 300 mg/kg; details: in vivo, sc
[37] = system: Mus musculus; test: Toxicity in subcutaneous pentylenetetrazole-induced CF1 albino mouse assessed as myoclonic jerks at 100 mg/kg, ip after 0.5 hrs; assay type: organism-based; parameters: dose 100 mg/kg; details: in vivo, sc
[38] = system: Mus musculus; test: Neurotoxicity in ip dosed CF1 albino mouse assessed as minimum dose required to cause impair in motor coordination after 0.5 hrs by rotarod test; assay type: toxicity, organism-based; details: in vivo
[39] = system: Mus musculus; test: Neurotoxicity in ip dosed CF1 albino mouse assessed as minimum dose required to cause impair in motor coordination after 4 hrs by rotarod test; assay type: toxicity, organism-based; details: in vivo
[40] = system: Mus musculus; test: Toxicity in subcutaneous pentylenetetrazole-induced CF1 albino mouse assessed as myoclonic jerks at 100 mg/kg, ip after 4 hrs; assay type: organism-based; parameters: dose 100 mg/kg; details: in vivo, sc
[41] = system: Mus musculus; test: Anticonvulsant activity in CF1 albino mouse assessed as time to peak effect at 100 mg/kg, ip; assay type: functional; details: route intraperitoneal
[42] = Neurotoxicity in ip dosed CF1 albino mouse assessed as impair in motor coordination by rotarod test; assay type: toxicity, organism-based; details: in vivo
[43] = system: Mus musculus; test: Neurotoxicity in CF1 albino mouse assessed as tremors at 300 mg/kg, ip after 0.5 hrs by rotarod test; assay type: toxicity, organism-based; parameters: dose 300 mg/kg, route intraperitoneal; details: in vivo
[44] = system: Mus musculus; test: Neurotoxicity in CF1 albino mouse assessed as loss of rotard grasping at 300 mg/kg, ip after 4 hrs by rotarod test; assay type: toxicity, organism-based; parameters: dose 300 mg/kg, route intraperitoneal; details: in vivo

Row | SMILES | TD50 [1] [mg/kg] | minimal effective dose [2] [mg/kg] | Activity [5] | Activity [7] | Activity [9] | minimal effective dose [15] [mg/kg] | ED50 [16] [mg/kg] | minimal effective dose [19] [mg/kg] | Activity [20] | minimal effective dose [21] [mg/kg] | logP [23] | Time [24] [h] | Activity [25] | Activity [27] | Activity [31] | other results
1 | O=C1NC(c2ccccc2)(C2CC2)C(=O)N1CN1CCOCC1 (centres undefined) | < 150 | 100 | Non-toxic | Non-toxic | Non-toxic | 300 | 13.9 | 30 | Non-toxic | 30 | 1.33 | 4 | Non-toxic | – | – | Activity [3]: Toxic; Activity [4]: Non-toxic; Activity [6]: inactive; PI [8]: <10.79; Activity [10]: Non-toxic; Activity [11]: Toxic; Activity [12]: Non-toxic; Activity [13]: Active; Activity [14]: inactive; Activity [17]: inactive; Activity [18]: Non-toxic; Activity [22]: Non-toxic
2 | CCC1(C)CC(=O)NC1=O (centres undefined) [ETHOSUXIMIDE] | > 500 | – | – | – | – | 300 | > 500 | 100 | – | – | – | 2 | – | Non-toxic | Non-toxic | Activity [26]: inactive; Activity [4]: Non-toxic; Activity [28]: inactive; Activity [29]: inactive; Activity [10]: Non-toxic; Activity [12]: Non-toxic; PI [30]: >3; Activity [14]: inactive; Activity [18]: Non-toxic; Activity [22]: Non-toxic
3 | O=C(OCc1ccccc1)N1CCN(CN2C(=O)NC(c3ccccc3)(C3CC3)C2=O)CC1 (centres undefined) | > 60 | 300 | Non-toxic | Non-toxic | Non-toxic | – | 10 | – | Non-toxic | 100 | 2.92 | 6 | Non-toxic | Non-toxic | Non-toxic | Activity [32]: inactive; Activity [33]: Active; PI [8]: >5.98; Activity [34]: Toxic; Activity [35]: inactive; Activity [36]: Toxic
4 | COCCN1CCN(CN2C(=O)NC(c3ccccc3)(C3CC3)C2=O)CC1 (centres undefined) | – | 100 | – | – | – | – | – | – | – | 100 | 1.46 | – | – | – | – | Activity [37]: Toxic; MTC [38]: 30 mg/kg; MTC [39]: 30 mg/kg; Activity [40]: Toxic
5 | O=C1NC(c2ccc(Cl)cc2)(C2CC2)C(=O)N1CN1CCN(CCc2ccccc2)CC1 (centres undefined) | – | 300 | – | – | – | – | – | – | – | 300 | 3.97 | – | – | – | – | MTC [38]: 30 mg/kg; MTC [39]: 30 mg/kg; Activity [36]: Toxic; Activity [40]: Toxic
6 | O=C(c1ccccc1)N1CCN(CN2C(=O)NC(c3ccccc3)(C3CC3)C2=O)CC1 (centres undefined) | – | 100 | Non-toxic | Non-toxic | Non-toxic | – | – | – | Non-toxic | 100 | 2.17 | – | Non-toxic | Non-toxic | Non-toxic | Activity [32]: inactive; Activity [37]: Toxic; Activity [34]: Toxic; Activity [35]: inactive
7 | CC[C@@H](C(N)=O)N1CCCC1=O | – | – | – | – | – | – | – | – | – | – | – | – | – | – | – | Time [41]: 1 h; TD50 [42]: > 500 mg/kg
8 | CCOC(=O)N1CCN(CN2C(=O)NC(c3ccccc3)(C3CC3)C2=O)CC1 (centres undefined) | – | 100 | – | – | – | 300 | – | 100 | – | 100 | 1.76 | – | – | – | – | Activity [3]: Toxic; Activity [43]: Toxic; Activity [44]: Toxic

Source: ChEMBL document CHEMBL1833945, “Synthesis and anticonvulsant activity of new N-Mannich bases derived from 5-cyclopropyl-5-phenyl- and 5-cyclopropyl-5-(4-chlorophenyl)-imidazolidine-2,4-diones” (Bioorg Med Chem, 2011)
